Data from publication PMC5316400, “Validation of precision-cut liver slices to study drug-induced cholestasis: a transcriptomics approach” (Archives of Toxicology, 2016).

Tests used:
[1] = system: Genes involved in hepatic cholestasis pathway; assay: Microarray gene expression in human PCLS exposed to cholestatic drugs: hepatic cholestasis pathway genes; details: 24 h, 60 μM bile acid mix
Protocol: (§1) Precision-cut liver slices of 5 mm diameter and 250 μm thickness were prepared (de Graaf et al. [2010]). At this thickness, full penetration of substrates has been shown. PCLS were made using the Krumdieck tissue slicer (Alabama R&D, Munford, AL, USA) in ice-cold Krebs buffer at pH 7.42, enriched with glucose to a final concentration of 25 mM, saturated with carbogen (95 % O2/5 % CO2). Immediately after the slices were made, they were placed in ice-cold University of Wisconsin organ preservation solution (UW, Dupont Critical Care, Waukegan, IL, USA) and stored on ice until the beginning of the experiment. Slices were pre-incubated individually in 12-well plates in 1.3 ml of Williams Medium E with glutamax-1 (Gibco, Invitrogen, Paisley, Scotland) supplemented with 25 mM D-glucose and 50 μg/ml gentamycin (Gibco, Invitrogen, Paisley, Scotland). In the incubator (Sanyo CO2/O2 Incubator, PANASONIC, Secaucus, NJ, USA), the plates were gently shaken (90 times/min) for 1 h under 80 % O2 and 5 % CO2 atmosphere at 37 °C. This pre-incubation allows the slices to restore their ATP levels. […] The plates were incubated under the same conditions for 24 h. All incubation conditions were carried out in triplicate. Each experiment was performed in slices of 6 different human livers (Table 1). Slices were harvested for ATP assay in 100 mM Tris buffer with 2 mM EDTA and for RNA isolation in RNAlater. The bile acid mix was added to the medium in order to create an environment similar to the physiological concentration in the portal vein. The composition of the serum bile acids was according to Scherer et al. ([2009]). Pilot experiments were performed to find out the non-toxic concentration of the bile acid mix.
(§2) Maxwell® 16 LEV Total RNA purification kit (Promega, The Netherlands) with Maxwell® 16 LEV Instrument was used to isolate RNA from the samples. Immediately after isolation, the RNA quality was assessed by measuring the 260/280 and 260/230 ratios, and the concentration was measured with the ND-1000 spectrophotometer (Fisher Scientific, Landsmeer, The Netherlands). The quality (RIN value) and quantity of the RNA were determined by high-throughput Caliper GX LabChip RNA kit (Caliper).
(§3) Ambion Illumina Total Prep RNA kit was used to transcribe 300 ng RNA to cRNA according to the manufacturer’s instructions. A total of 750 ng of cRNA was hybridized at 58 °C for 16 h to the Illumina HumanHT-12 v4 Expression BeadChips. BeadChips were scanned using Iscan software, and IDAT files were generated (Illumina, San Diego, CA, USA).
(§4) GenomeStudio software (Illumina) was used to read the IDAT files and generate raw expression values. The ArrayAnalysis web service (www.arrayanalysis.org/) was used for further preprocessing the data, which uses lumi R package (Eijssen et al. [2013]). Raw gene expression data were background-corrected (bgAdjust), variance-stabilized (VST) and normalized by quantile normalization. After normalization, the data were corrected for batch differences owing to RNA isolation and hybridization using the ComBat method implemented in the swamp package in R (Lauss et al. [2013]). Differentially expressed genes in slices exposed to the cholestatic drugs in the presence of bile acids versus the slices exposed to vehicle (DMSO) in the presence of bile acids were identified using the unpaired moderated t test in the limma package (Ritchie et al. [2015]). Genes that are regulated with a criterion of fold change of 1.5 (≤ or ≥1.5), and FDR-corrected p value ≤0.05 (Benjamini and Hochberg method) were chosen for pathway analysis. To compare our data with the scarcely available human in vivo data, human in vivo late-stage cholestasis data were downloaded from the Gene Expression Omnibus database (GSE46960).

[2] = system: Genes involved in the FXR pathway; assay: Microarray gene expression in human PCLS exposed to cholestatic drugs: FXR pathway genes; details: 24 h, 60 μM bile acid mix
Protocol: as §1, §2, §3, §4

[3] = system: Genes involved in unfolded protein response (UPR); assay: Microarray gene expression in human PCLS exposed to cholestatic drugs: unfolded protein response genes; type: cell-based; details: 24 h, 60 μM bile acid mix
Protocol: as §1, §2, §3, §4

[4] = system: human precision-cut liver slices (PCLS); assay: Transcriptomics of human PCLS: differentially regulated genes; type: cell-based; details: fold change of 1.5 and adjusted p value 0.05, 24 h, 60 μM bile acid mix
Protocol: as §1, §2, §3, §4

[5] = adult patients, therapeutic dose, systemic blood; no reference given; cited from earlier work
[6] = C max in systemic blood of adult patients after a therapeutic dose; details: highest toxic concentration tested in human PCLS vs C max in adult patients

In the case of `CN(C)CCCN1c2ccccc2Sc2ccc(Cl)cc21` [CP, chlorpromazine], the ABCB4 fold change ([1]; 30 μM) was −2.0, the ABCB11 fold change ([1]; 30 μM) was −1.4 and the ABCC3 fold change ([1]; 30 μM) was −1.1. The ABCG5 fold change ([1]; 30 μM) was −1.4, the ABCG8 fold change ([1]; 30 μM) was −1.7 and the CYP8B1 fold change ([1]; 30 μM) was −2.3. The CYP27A1 fold change ([1]; 30 μM) was −1.3, the GCGR fold change ([1]; 30 μM) was −1.7 and the IL1B fold change ([1]; 30 μM) was −1.1. It also gave an IL1RL1 fold change ([1]; 30 μM) of 1.4, an IL1RN fold change ([1]; 30 μM) of 1.3 and an IRAK2 fold change ([1]; 30 μM) of 1.2. The JUN fold change ([1]; 30 μM) was 1.5, the NR0B2 fold change ([1]; 30 μM) was −1.6 and the NR1H3 fold change ([1]; 30 μM) was −1.2. For the same compound, the NR1H4 fold change ([1]; 30 μM) was −1.2, the PPRC1 fold change ([1]; 30 μM) was 1.2 and the RXRA fold change ([1]; 30 μM) was −1.3. It also gave an SLC22A7 fold change ([1]; 30 μM) of −2.6, a TNFRSF1B fold change ([1]; 30 μM) of 1.0 and an ABCB4 fold change ([2]; 30 μM) of −2.0. It also gave an ABCB11 fold change ([2]; 30 μM) of −1.7, an ABCG5 fold change ([2]; 30 μM) of −1.4 and an ABCG8 fold change ([2]; 30 μM) of −1.7. For the same compound, the APOC2 fold change ([2]; 30 μM) was −1.4, the APOC4 fold change ([2]; 30 μM) was −1.8 and the APOF fold change ([2]; 30 μM) was −1.9. For the same compound, the BAAT fold change ([2]; 30 μM) was −1.5, the C3 fold change ([2]; 30 μM) was −1.5 and the CYP8B1 fold change ([2]; 30 μM) was −2.3. It also gave a CYP27A1 fold change ([2]; 30 μM) of −1.1, an FASN fold change ([2]; 30 μM) of −1.4 and an FBP1 fold change ([2]; 30 μM) of −2.0. The FETUB fold change ([2]; 30 μM) was −1.8, the FGA fold change ([2]; 30 μM) was −1.7 and the ITIH4 fold change ([2]; 30 μM) was −1.4. For the same compound, the KNG1 fold change ([2]; 30 μM) was −1.8, the “NR0B2 (SHP) fold change” value ([2]; 30 μM) was −1.3 and the “NR1H3 (LXR) fold change” value ([2]; 30 μM) was −1.3. For the same compound, the “NR1H4 (FXR) fold change” value ([2]; 30 μM) was −1.4, the PON1 fold change ([2]; 30 μM) was −1.9 and the RXRA fold change ([2]; 30 μM) was −1.1. For the same compound, the SCARB1 fold change ([2]; 30 μM) was −1.6, the SDC1 fold change ([2]; 30 μM) was −1.4 and the SERPINF2 fold change ([2]; 30 μM) was −1.5. It also gave an SLC22A7 fold change ([2]; 30 μM) of −2.6, an SLC51B fold change ([2]; 30 μM) of −1.9 and an SULT2A1 fold change ([2]; 30 μM) of −1.9. The ATF4 fold change ([3]; 30 μM) was 1.5, the “DDIT3 (CHOP) fold change” value ([3]; 30 μM) was 1.2 and the DNAJB9 fold change ([3]; 30 μM) was 1.0. The ERN1 fold change ([3]; 30 μM) was 1.0, the HSPA9 fold change ([3]; 30 μM) was 1.1 and the HSPH1 fold change ([3]; 30 μM) was 1.0. The INSIG1 fold change ([3]; 30 μM) was 1.3, the NFE2L2 fold change ([3]; 30 μM) was 1.1 and the SYVN1 fold change ([3]; 30 μM) was 1.0. For the same compound, the “Number of regulated genes” value ([4]; 10 μM) was 1, the “Number of regulated genes” value ([4]; 20 μM) was 2 and the “Number of regulated genes” value ([4]; 30 μM) was 61. For the same compound, the Cmax [5] was 420 nM and the “toxic concentration used in PCLS study relative to C max” value [6] was ~ 70 × C max.

For `C#C[C@]1(O)CC[C@H]2[C@@H]3CCc4cc(O)ccc4[C@H]3CC[C@@]21C` [EE, ethinyl estradiol], the “Number of regulated genes” value ([4]; 25 μM) was 0, the “Number of regulated genes” value ([4]; 50 μM) was 5 and the “Number of regulated genes” value ([4]; 75 μM) was 63. For the same compound, the Cmax [5] was 8.2 nM.

For `S=C=Nc1cccc2ccccc12` [AN, Alpha-naphthylisothiocyanate], the ABCB4 fold change ([1]; 75 μM) was −2.1, the ABCB11 fold change ([1]; 75 μM) was −1.3 and the ABCC3 fold change ([1]; 75 μM) was −1.2. For the same compound, the ABCG5 fold change ([1]; 75 μM) was −1.6, the ABCG8 fold change ([1]; 75 μM) was −2.3 and the CYP8B1 fold change ([1]; 75 μM) was −3.4. For the same compound, the CYP27A1 fold change ([1]; 75 μM) was −1.4, the GCGR fold change ([1]; 75 μM) was −1.9 and the IL1B fold change ([1]; 75 μM) was −1.2. It also gave an IL1RL1 fold change ([1]; 75 μM) of 2.3, an IL1RN fold change ([1]; 75 μM) of 1.1 and an IRAK2 fold change ([1]; 75 μM) of 1.6. For the same compound, the JUN fold change ([1]; 75 μM) was 1.3, the NR0B2 fold change ([1]; 75 μM) was −1.2 and the NR1H3 fold change ([1]; 75 μM) was −1.1. For the same compound, the NR1H4 fold change ([1]; 75 μM) was −1.1, the PPRC1 fold change ([1]; 75 μM) was 1.6 and the RXRA fold change ([1]; 75 μM) was −1.6. It also gave an SLC22A7 fold change ([1]; 75 μM) of −2.9, a TNFRSF1B fold change ([1]; 75 μM) of −1.5 and an ABCB4 fold change ([2]; 75 μM) of −2.1. The ABCB11 fold change ([2]; 75 μM) was −1.8, the ABCG5 fold change ([2]; 75 μM) was −1.5 and the ABCG8 fold change ([2]; 75 μM) was −2.3. The APOC2 fold change ([2]; 75 μM) was −1.8, the APOC4 fold change ([2]; 75 μM) was −1.8 and the APOF fold change ([2]; 75 μM) was −1.9. It also gave a BAAT fold change ([2]; 75 μM) of −1.8, a C3 fold change ([2]; 75 μM) of −1.7 and a CYP8B1 fold change ([2]; 75 μM) of −3.5. It also gave a CYP27A1 fold change ([2]; 75 μM) of −1.3, an FASN fold change ([2]; 75 μM) of −1.9 and an FBP1 fold change ([2]; 75 μM) of −1.8. The FETUB fold change ([2]; 75 μM) was −2.0, the FGA fold change ([2]; 75 μM) was −2.1 and the ITIH4 fold change ([2]; 75 μM) was −1.9. For the same compound, the KNG1 fold change ([2]; 75 μM) was −2.3, the “NR0B2 (SHP) fold change” value ([2]; 75 μM) was −1.8 and the “NR1H3 (LXR) fold change” value ([2]; 75 μM) was −1.8. For the same compound, the “NR1H4 (FXR) fold change” value ([2]; 75 μM) was −1.8, the PON1 fold change ([2]; 75 μM) was −2.0 and the RXRA fold change ([2]; 75 μM) was −1.5. For the same compound, the SCARB1 fold change ([2]; 75 μM) was −2.2, the SDC1 fold change ([2]; 75 μM) was −2.0 and the SERPINF2 fold change ([2]; 75 μM) was −1.8. It also gave an SLC22A7 fold change ([2]; 75 μM) of −2.9, an SLC51B fold change ([2]; 75 μM) of −1.9 and an SULT2A1 fold change ([2]; 75 μM) of −2.1. The ATF4 fold change ([3]; 75 μM) was 2.3, the “DDIT3 (CHOP) fold change” value ([3]; 75 μM) was 2.9 and the DNAJB9 fold change ([3]; 75 μM) was 2.7. The ERN1 fold change ([3]; 75 μM) was 1.5, the HSPA9 fold change ([3]; 75 μM) was 1.9 and the HSPH1 fold change ([3]; 75 μM) was 2.0. It also gave an INSIG1 fold change ([3]; 75 μM) of −2.5, an NFE2L2 fold change ([3]; 75 μM) of 1.5 and an SYVN1 fold change ([3]; 75 μM) of 1.5. The “Number of regulated genes” value ([4]; 25 μM) was 2, the “Number of regulated genes” value ([4]; 50 μM) was 183 and the “Number of regulated genes” value ([4]; 75 μM) was 458.
